According to US5441732A, “Reversible gelation emulsion compositions and methods of use” (Allergan, Inc., priority 1992, dated 1995):
Read-outs that look alike come from different tables or passages of the source.

Legend:
[1] = Drug solubility in oil at room temperature; format: physicochemical; conditions: for Drug solubility in Miglyol: Miglyol 812
[2] = cited from earlier work

Compound	Drug solubility in Diethyl Phthalate [1]	solubility in diethyl phthalate [1]	Drug solubility in Miglyol [1]	water solubility ([2]; pH 4.0)	water solubility ([2]; pH 7.4)
CC(=O)[C@@]1(O)CC[C@H]2[C@@H]3C[C@H](C)C4=CC(=O)C=C[C@]4(C)[C@@]3(F)[C@@H](O)C[C@@]21C [Fluorometholone]	0.075%	relatively low	< 0.001%	–	–
CC(C(=O)O)c1ccc(-c2ccccc2)c(F)c1 (stereo not shown) [Flurbiprofen (free acid)]	12-20%	–	2-4%	very small	higher
